Values of other authors in patent US20240108697A1, “ANTIMICROBIAL COMPOSITIONS” (Matoke Holdings Limited, priority 2020, published 2024).

Tests used:
[1] = at 20° C. and 1 atm
[2] = tested on: Human Fibroblast Cell Migration; conditions: in the presence of 30 mM glucose

| solubility [1] | Structure (SMILES) | mobilisation of fibroblasts in a cell culture system [2] |
| --- | --- | --- |
| about 375 g/100 g water | O=C(CO)[C@@H](O)[C@H](O)[C@H](O)CO [Fructose] | – |
| 90 g/100 g water | O=C[C@H](O)[C@@H](O)[C@H](O)[C@H](O)CO [Glucose] | poor mobilisations of fibroblasts |
